Experimental data from patent publication US20140213567A1, “TAZOBACTAM ARGININE ANTIBIOTIC COMPOSITIONS” (Cubist Pharmaceuticals, Inc., priority 2012, published 2014).

Test: Hygroscopicity of solid form
Type: physicochemical
Conditions: relative to amorphous tazobactam arginine and amorphous tazobactam sodium

For `C[C@]1(Cn2ccnn2)[C@H](C(=O)O)N2C(=O)CC2S1(=O)=O` (stereo partly shown) [Tazobactam arginine polymorph Ia, Tazobactam Arginine], the hygroscopicity was “low hygroscopicity”.
